# According to US12557811B2, “Effective and eco-friendly disinfectant” (The Hong Kong University of Science and Technology, priority 2022, dated 2026):
# Like-named read-outs stand apart in the source and are kept apart here.
# Columns and labels:
# [1] = Degradation kinetics with solar irradiation
# [2] = Degradation kinetics without solar irradiation (darkness); type: physicochemical
# [3] = test system: E. coli, S. aureus and C. albicans; test: Disinfection experiments, comparison across the three types of pathogens; type: cell-based, Escherichia coli, Staphylococcus aureus, Candida albicans
# Procedure: (§1) The disinfection experiments were performed in PBS solutions (10 mM, pH 7.2) with an initial concentration of E. coli, S. aureus, or C. albicans of 10^6-10^7 CFU mL^−1. Different concentrations of 2,6-DCQ or PCMX were added to the cell suspensions at room temperature (˜22° C.) After the given contact time (i.e., 5 min), the microorganism cells were enumerated following a membrane filter method. Briefly, serial ten-fold dilutions were conducted for the disinfected samples and the control sample without disinfection. Each diluted suspension was filtered through a 0.45-μm filter paper, which was then placed on a petri dish. The petri dishes containing E. coli, S. aureus, and C. albicans were incubated in m-FC medium at 45° C. for 24 h, Tryptone Soya broth at 37° C. for 24 h, and Sabouraud Dextrose broth at 37° C. for 24 h, respectively. After incubation, the colony forming units within a statistically reasonable range (20-80) were counted. The disinfection experiments were performed in duplicate. All the materials for the disinfection experiments were autoclaved at 121° C. for 15 min and cooled to room temperature before use.
# E. coli = test: Disinfection experiments, membrane filter enumeration, E. coli; type: cell-based, Escherichia coli
# Procedure: Disinfection experiments were performed in phosphate buffer saline (PBS; 10 mM, pH 7.2) with an initial concentration of E. coli of 10^6-10^7 colony forming units per milliliter (CFU mL^−1). Different concentrations of disinfection byproducts were added to the cell suspensions individually at room temperature (˜22° C.) with a contact time of 5 min. After the given contact time, the microorganism cells were enumerated following a membrane filter method. Briefly, serial ten-fold dilutions were conducted for the disinfected samples and the control sample without disinfection. Each diluted suspension was subjected to filtration through 0.45-μm membrane, which was then placed on a petri dish containing m-FC medium. After incubation at 45° C. for 24 hours, the colony forming units within a statistically reasonable range (20-80) were counted. The disinfection experiments were performed in duplicate. All the materials for the disinfection experiments were autoclaved at 121° C. for 15 min and cooled to room temperature before use.
# as §1
# The disinfection experiments were performed in PBS solutions (10 mM, pH 7.2) with an initial concentration of E. coli of 10^6-10^7 CFU mL^−1. 2,5-Dichloro-1,4-benzoquinone (7.5 and 15 mg L^−1) or 2,6-DCQ (7.5 and 15 mg L^−1) was added to the cell suspensions at room temperature (˜22° C.). After the given contact time (i.e., 5 min), the microorganism cells were enumerated following a membrane filter method. Briefly, serial ten-fold dilutions were conducted for the disinfected samples and the control sample without disinfection. Each diluted suspension was subjected to filtration through 0.45-μm membrane, which was then placed on a petri dish. The petri dishes containing E. coli were incubated in m-FC medium at 45° C. for 24 hours. After incubation, the colony forming units within a statistically reasonable range (20-80) were counted. The disinfection experiments were performed in duplicate. All the materials for the disinfection experiments were autoclaved at 121° C. for 15 min and cooled to room temperature before use.
# The disinfection experiments were performed in PBS solutions (10 mM, pH 7.2) with an initial concentration of E. coli of 10^6-10^7 CFU mL^−1. 2,6-DBQ (2,6-dibromo-1,4-benzoquinone), 2,6-DIQ (2,6-diiodo-1,4-benzoquinone), or 2,6-DCQ was added to the cell suspensions at room temperature (˜22° C.) with a contact time of 5 min. After the given contact time, the microorganism cells were enumerated following a membrane filter method. Briefly, serial ten-fold dilutions were conducted for the disinfected samples and the control sample without disinfection. Each diluted suspension was subjected to filtration through 0.45-μm membrane, which was then placed on a petri dish. The petri dishes containing E. coli were incubated in m-FC medium at 45° C. for 24 hours.
# P. dumerilii embryos = test: P. dumerilii embryo developmental toxicity; type: in vivo, Platynereis dumerilii
# Source text: The doses of 2,6-DCQ and PCMX for 3-log E. coli inactivation (pH 7.2) were set as the in-use concentrations, which were serially diluted and added to the embryos of a marine polychactc, Platynereis dumerilii, at 12-hour postfertilization. A dilution factor was defined as the ratio of the in-use concentration to the exposure concentration. Each exposure set contained a control sample (i.e., the embryos at 12-hour postfertilization developed in seawater). By 24-hour postfertilization, normally developed embryos should have reached the first larval stage. An inverted stereomicroscope (40× magnification) was used to observe the larvae. The normal development percentage was calculated as the ratio of normally developed embryos to total embryos. By plotting the curve of the normal development percentage versus the dilution factor, the EC50,DF value (i.e., the dilution factor corresponding to 50% of the normal development percentage of the control sample) was obtained using SigmaPlot 12. The developmental toxicity test was conducted in duplicate.
# C. albicans = test: Disinfection experiments, membrane filter enumeration, C. albicans; type: cell-based, Candida albicans; settings: for inactivation rate constant / Dose for achieving 3-log (99.9%) inactivation: C. albicans
# Procedure: as §1
# [4] = Storage stability in solid form or in an organic solvent; type: physicochemical
# S. aureus = test: Disinfection experiments, membrane filter enumeration, S. aureus; type: cell-based, Staphylococcus aureus; settings: for inactivation rate constant / Dose for achieving 3-log (99.9%) inactivation: S. aureus
# Procedure: as §1
# rainbow trout = settings: environmentally relevant concentrations (˜4.2 μg L^−1); cited from earlier work
# zebrafish embryos = settings: in vivo; cited from earlier work
# [5] = test system: antibiotic resistance genes; settings: environmentally relevant concentrations; cited from earlier work
# [6] = pH not given, read-out: Half-life, without solar irradiation (converted)
compound,measurement,setting,value
"Oc1cc(Cl)c(O)cc1Cl [2,5-Dichlorohydroquinone, 2,5-dichlorohydroquinone]",half-life,[1],0.11 h
same,"k, degradation, with solar irradiation",[1]; pH not given,0.101 h⁻¹
same,"k, degradation, without solar irradiation",[2]; pH not given,0.0922 h⁻¹
same,half-life,[2]; [6],0.13 h
"Oc1ccc(I)cc1I [2,4-Diiodophenol, 2,4-diiodophenol]","Half-life, with solar irradiation",[1]; pH not given,83 h
same,"k, degradation, with solar irradiation",[1]; pH not given,0.0083 h⁻¹
"Oc1ccc(Br)cc1Br [2,4-Dibromophenol, 2,4-dibromophenol]",half-life,[1],35 h
same,"k, degradation, with solar irradiation",[1]; pH not given,0.0201 h⁻¹
"Oc1ccc(Cl)cc1Cl [2,4-Dichlorophenol, 2,4-dichlorophenol]",half-life,physchem,44 h
same,"k, degradation, with solar irradiation",[1]; pH not given,0.0157 h⁻¹
"O=C1C=C(Cl)C(=O)C(Cl)=C1 [2,6-DCQ, 2,6-dichloro-1,4-benzoquinone]","disinfection efficacy, times higher than PCMX",[3],10-15 times
same,"reduction of disinfectant doses for 99.9% inactivation by switching from PCMX to 2,6-DCQ","[3]; E. coli, S. aureus and C. albicans",89-93%
same,"in-use doses for 99.9% inactivation, times lower than the corresponding doses of PCMX","[3]; E. coli, S. aureus and C. albicans, contact time 5 min",10-15 times
same,inactivation,E. coli,99.9%
same,inactivation rate constant,E. coli,91700 µL/min/mg
same,"dose required for 99.9% inactivation, times lower than those of the other nine disinfection byproducts","E. coli; E. coli, contact time of 5 minutes",8.8-500 times
same,"inactivation rate constant, times greater than those of other disinfection byproducts","E. coli; E. coli, versus the other nine disinfection byproducts",8.8-500 times
same,Dose for achieving 3-log (99.9%) inactivation,E. coli; pH 7.2,12.8 mg/L
same,inactivation rate constant,E. coli; pH 7.2,91700 µL/min/mg
same,"Half-life, with solar irradiation",[1]; pH 6.2,4.13 h
same,"k, degradation, with solar irradiation",[1]; pH 6.2,0.17 h⁻¹
same,half-life under solar irradiation,[1]; pH 7.2,3.20 h
same,"k, degradation, with solar irradiation",[1]; pH 7.2,0.22 h⁻¹
same,"Half-life, with solar irradiation",[1]; pH 8.2,1.33 h
same,"k, degradation, with solar irradiation",[1]; pH 8.2,0.52 h⁻¹
same,"half-lives, times shorter than those of PCMX","[1]; seawater (pH 8.2), with and without solar irradiation",about 200 times
same,"developmental toxicity, times lower than PCMX",P. dumerilii embryos; 48 hours after discharge into seawater,31 times
same,developmental toxicity compared with PCMX,P. dumerilii embryos; after 2 hours of degradation in seawater,lower developmental toxicity
same,inactivation rate constant,C. albicans,31200 µL/min/mg
same,Dose for achieving 3-log (99.9%) inactivation,"C. albicans; pH 7.2, contact time 5 min",35.7 mg/L
same,inactivation rate constant,"C. albicans; pH 7.2, contact time 5 min",31200 µL/min/mg
same,inactivation,"C. albicans; Candida albicans ATCC 14053, contact time of 5 minutes",99.9%
same,time remaining stable,[4],at least 24 months
same,inactivation rate constant,S. aureus,20000 µL/min/mg
same,Dose for achieving 3-log (99.9%) inactivation,"S. aureus; pH 7.2, contact time 5 min",29.4 mg/L
same,inactivation rate constant,"S. aureus; pH 7.2, contact time 5 min",20000 µL/min/mg
same,inactivation,"S. aureus; Staphylococcus aureus ATCC 25923, contact time of 5 minutes",99.9%
same,half-life,"[2]; buffer, pH 6.2, read-out: half-life in darkness (converted)",65.5 h
same,half-life,"[2]; buffer, pH 7.2, read-out: half-life in darkness (converted)",15.1 h
same,"Half-life, without solar irradiation",[2]; pH 6.2,65.5 h
same,"k, degradation, without solar irradiation",[2]; pH 6.2,0.010 h⁻¹
same,"Half-life, without solar irradiation",[2]; pH 7.2,15.1 h
same,"k, degradation, without solar irradiation",[2]; pH 7.2,0.046 h⁻¹
same,"Half-life, without solar irradiation",[2]; pH 8.2,1.74 h
same,"k, degradation, without solar irradiation",[2]; pH 8.2,0.397 h⁻¹
"Oc1cc(Br)c(O)cc1Br [2,5-Dibromohydroquinone, 2,5-dibromohydroquinone]",half-life,[1],0.15 h
same,"k, degradation, with solar irradiation",[1]; pH not given,0.787 h⁻¹
same,"k, degradation, without solar irradiation",[2]; pH not given,0.0767 h⁻¹
same,half-life,[2]; [6],0.15 h
"O=C1C=C(I)C(=O)C(I)=C1 [2,6-DIQ, 2,6-diiodo-1,4-benzoquinone]","disinfection efficacy compared with 2,6-DCQ",E. coli; pH 7.2,comparable disinfection efficacy
"para-chloro-meta-xylenol [PCMX, reference compound]",effects of chronic exposure in rainbow trout,rainbow trout,gene regulation and morphological changes
same,"in-use doses for 99.9% inactivation, times higher than those of 2,6-DCQ","[3]; three types of pathogens, contact time 5 min",10-15 times
same,inactivation rate constant,E. coli; E. coli,11000 µL/min/mg
same,inactivation rate constant,"E. coli; E. coli, pH 7.2, contact time 5 min",11000 µL/min/mg
same,Dose for achieving 3-log (99.9%) inactivation,E. coli; pH 7.2,188 mg/L
same,adverse effects in zebrafish embryos,zebrafish embryos,"mortality, morphological malformations, and neurotoxicity"
same,"Half-life, with solar irradiation",[1]; pH 8.2,257 h
same,"k, degradation, with solar irradiation",[1]; pH 8.2,0.0027 h⁻¹
same,half-life under solar irradiation,"[1]; pH 8.2, seawater pH",257 h
same,inactivation rate constant,C. albicans,3500 µL/min/mg
same,Dose for achieving 3-log (99.9%) inactivation,"C. albicans; pH 7.2, contact time 5 min",325 mg/L
same,inactivation rate constant,"C. albicans; pH 7.2, contact time 5 min",3500 µL/min/mg
same,effect on antibiotic resistance genes,[5],promote the spread of antibiotic resistance genes
same,inactivation rate constant,S. aureus,3500 µL/min/mg
same,Dose for achieving 3-log (99.9%) inactivation,"S. aureus; pH 7.2, contact time 5 min",312 mg/L
same,inactivation rate constant,"S. aureus; pH 7.2, contact time 5 min",3500 µL/min/mg
same,"Half-life, without solar irradiation",[2]; pH 8.2,5578 h
same,"k, degradation, without solar irradiation",[2]; pH 8.2,0.00012 h⁻¹
same,"Half-life, without solar irradiation",[2]; seawater pH (pH 8.2),~5760 h
"Oc1cc(I)c(O)cc1I [2,5-Diiodohydroquinone, 2,5-diiodohydroquinone]",half-life,[1],0.15 h
same,"k, degradation, with solar irradiation",[1]; pH not given,0.756 h⁻¹
same,"k, degradation, without solar irradiation",[2]; pH not given,0.078 h⁻¹
same,half-life,[2]; [6],0.15 h
"O=C1C=C(Br)C(=O)C(Br)=C1 [2,6-DBQ, 2,6-dibromo-1,4-benzoquinone]","disinfection efficacy compared with 2,6-DCQ",E. coli; pH 7.2,comparable disinfection efficacy
"O=C1C=C(Cl)C(=O)C=C1Cl [2,5-DCQ, 2,5-dichloro-1,4-benzoquinone]","disinfection efficacy compared with 2,6-DCQ",E. coli; pH 7.2,comparable disinfection efficacy
